Experimental findings from patent US20050282755A1, “Compositions having antimicrobial activity and uses thereof” (priority 2004, published 2005) are described below.

In brackets after ≈: the same amount, converted by molar mass. Non-standard residues stand in square brackets, D forms with d. Residues, ends and D or L forms follow the SMILES beside them. *: point of attachment. Lauroyl = CCCCCCCCCCCC(=O)* Some results are limits rather than exact numbers.

Assay type in all cases: cell-based
Assay [1] deals with Propionibacterium acnes ATCC 6919. Briefly: MIC, agar dilution method NCCLS M11-A6, Brucella agar, anaerobic (Table 9, superscript c). The conditions noted are these: ATCC 6919. The method in brief:
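Agar dilution per NCCLS M11-A6 on Brucella agar; final inoculum 1.5×10^8 CFU/milliliter applied to plates, incubated 48-96 hours at 37° C. under anaerobic (GasPak) conditions. MIC = lowest peptide concentration with no colony growth.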
A general note: In agar dilution the substance is mixed into plates at graded concentrations.

The test system of assay [2] is Candida albicans ATCC 18804. The assay is described as follows: MIC in yeasts, NCCLS M27-A2 broth microdilution, RPMI 1640 (Table 9, letter e). The conditions noted are these: ATCC 18804. The method in brief: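 Broth microdilution per NCCLS M27-A2 in RPMI 1640 with glutamine and phenol red, final inoculum 0.5×10^3–2.5×10^3 CFU/milliliter. Incubated 24 to 48 hours at 37° C; MIC is the lowest peptide concentration with no visible growth.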

Assay [3] has as its system Staphylococcus aureus ATCC 29213. Briefly: MIC, NCCLS M7-A6 broth microdilution, cation-adjusted Mueller Hinton broth (Table 9, no superscript). The settings on record: ATCC 29213. In outline: (§1)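 MIC, read as the lowest peptide concentration without visible growth compared with peptide-free wells, after overnight incubation at 37° C. Wells held cation-adjusted Mueller Hinton broth and a final inoculum of 5×10^5 to 1×10^6 CFU/mL from log-phase culture.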
(In general: In broth dilution the organism is exposed to a series of concentrations in liquid medium.)

For assay [4], the system named is Escherichia coli ATCC 25922. The assay is described as follows: MIC, NCCLS M7-A6 broth microdilution (Table 9, no superscript). The conditions noted are these: ATCC 25922. The method in brief: as §1
Assay [5] concerns Pseudomonas aeruginosa ATCC 27853. The assay is described as above. The settings on record: ATCC 27853. In outline:
as §1

In the next assay the test system is Salmonella dublin (Lane). Described as above. The method in brief:
as §1

For assay [6], the system named is Staphylococcus epidermidis ATCC 12228. Described as above. The settings on record: ATCC 12228. The method in brief:
as §1

On to `CCCCCCCCCCCC(=O)N[C@@H](C(=O)N[C@H](CCCNC(=N)N)C(=O)N[C@@H](C(=O)N[C@H](C)C(=O)N[C@H](CCCNC(=N)N)C(=O)N[C@@H](C(=O)NCC(=O)N[C@H](CCCNC(=N)N)C(=O)N[C@H](CO)C(=O)N[C@H](CCCNC(=N)N)C(=O)N[C@H](Cc1c[nH]c2ccccc12)C(=O)N[C@H](CCCNC(=N)N)C(=O)N[C@H](CC(=O)O)C(=O)N[C@@H](C(=O)N[C@H](C)C(=O)N[C@H](CCCNC(=N)N)C(=O)N[C@H](CC(N)=O)C(=O)N[C@H](Cc1ccccc1)C(=O)N[C@H](CCSC)C(=O)N[C@H](CCCNC(=N)N)C(N)=O)C(C)C)[C@H](C)O)C(C)C)[C@H](C)O` [Peptide 78, Lauryl-trvartgrsrwrdvarnfmr-NH2] (Lauroyl-[dT][dR][dV][dA][dR][dT]G[dR][dS][dR][dW][dR][dD][dV][dA][dR][dN][dF][dM][dR]-NH2), for which, in assay [1], the “MIC P. acnes” value came out at 32c ug/mL. In addition, the “MIC C. albicans” value in assay [2] came to 8e ug/mL. The “MIC S. aureus” value in assay [3] amounted to 8 µg/mL (≈ 2.99 µM). Besides, the “MIC E. coli” value in assay [4] was found to be 8 µg/mL (≈ 2.99 µM). The “MIC P. aeruginosa” value in assay [5] was 8 µg/mL (≈ 2.99 µM). The “MIC S. dublin” value against Salmonella dublin (Lane) came out at 8 µg/mL (≈ 2.99 µM). Besides, the “MIC S. epidermidis” value in assay [6] is 1 µg/mL (≈ 0.374 µM).
Turning to `CCCCCCCCCCCC(=O)N[C@@H](CCCNC(=N)N)C(=O)N[C@@H](CO)C(=O)N[C@@H](CCCNC(=N)N)C(=O)N[C@@H](Cc1c[nH]c2ccccc12)C(=O)N[C@@H](CCCNC(=N)N)C(=O)N[C@@H](CC(=O)O)C(=O)N[C@H](C(=O)N[C@@H](C)C(=O)N[C@@H](CCCNC(=N)N)C(=O)N[C@@H](CC(N)=O)C(=O)N[C@@H](Cc1ccccc1)C(=O)N[C@@H](C)C(=O)N[C@@H](CCCNC(=N)N)C(N)=O)C(C)C` [Peptide 97, Lauryl-RSRWRDVARNFAR-NH2] (Lauroyl-RSRWRDVARNFAR-NH2), the “MIC P. acnes” value in assay [1] was found to be 64c ug/mL. Moreover, the “MIC C. albicans” value in assay [2] was 8e ug/mL. Moreover, the “MIC S. aureus” value in assay [3] was determined as 16 µg/mL (≈ 8.55 µM). For the same compound, in assay [4], the “MIC E. coli” value came to 32 µg/mL (≈ 17.1 µM). In addition, the “MIC P. aeruginosa” value in assay [5] came to 32 µg/mL (≈ 17.1 µM). Further, in the assay on Salmonella dublin (Lane), the “MIC S. dublin” value was determined as 32 µg/mL (≈ 17.1 µM). Also, in assay [6], the “MIC S. epidermidis” value was found to be 2 µg/mL (≈ 1.07 µM).
As to `CCCCCCCCCCCC(=O)N[C@@H](CCCNC(=N)N)C(=O)N[C@@H](CO)C(=O)N[C@@H](CCCNC(=N)N)C(=O)N[C@@H](Cc1c[nH]c2ccccc12)C(=O)N[C@@H](CCCNC(=N)N)C(=O)N[C@@H](CC(=O)O)C(=O)N[C@H](C(=O)N[C@@H](C)C(=O)N[C@@H](CCCNC(=N)N)C(=O)N[C@@H](CC(N)=O)C(=O)N[C@@H](Cc1ccccc1)C(=O)N[C@@H](CCSC)C(N)=O)C(C)C` [Peptide 98, Lauryl-RSRWRDVARNFM-NH2] (Lauroyl-RSRWRDVARNFM-NH2), the “MIC P. acnes” value in assay [1] was more than 64c ug/mL. Besides, in assay [2], the “MIC C. albicans” value is listed as 16e ug/mL. Moreover, in assay [3], the “MIC S. aureus” value was 4 µg/mL (≈ 2.25 µM). Besides, the “MIC E. coli” value in assay [4] is 16 µg/mL (≈ 9.01 µM). In addition, the “MIC P. aeruginosa” value in assay [5] was determined as 64 µg/mL (≈ 36.1 µM). Besides, the “MIC S. dublin” value in the assay with Salmonella dublin (Lane) worked out at 16 µg/mL (≈ 9.01 µM). The “MIC S. epidermidis” value in assay [6] came out at 8 µg/mL (≈ 4.51 µM).
`CCCCCCCCCCCC(=O)N[C@@H](CCCNC(=N)N)C(=O)N[C@@H](CO)C(=O)N[C@@H](CCCNC(=N)N)C(=O)N[C@@H](Cc1c[nH]c2ccccc12)C(=O)N[C@@H](CCCNC(=N)N)C(=O)N[C@@H](CC(=O)O)C(=O)N[C@H](C(=O)N[C@@H](C)C(=O)N[C@@H](CCCNC(=N)N)C(=O)N[C@@H](CC(N)=O)C(=O)N[C@@H](Cc1ccccc1)C(N)=O)C(C)C` [Peptide 99, Lauryl-RSRWRDVARNF-NH2] (Lauroyl-RSRWRDVARNF-NH2): the “MIC P. acnes” value in assay [1] is given as more than 64c ug/mL. The “MIC C. albicans” value in assay [2] was 32e ug/mL. For the same compound, in assay [3], the “MIC S. aureus” value came to 4 µg/mL (≈ 2.43 µM). Further, the “MIC E. coli” value in assay [4] was 32 µg/mL (≈ 19.5 µM). Further, the “MIC P. aeruginosa” value in assay [5] is more than 64 µg/mL. For the same compound, in the assay on Salmonella dublin (Lane), the “MIC S. dublin” value is more than 64 µg/mL. For the same compound, the “MIC S. epidermidis” value in assay [6] is 4 µg/mL (≈ 2.43 µM).
